From article PMC11661628, “Cannabis sativa extracts inhibit LDL oxidation and the formation of foam cells in vitro, acting as potential multi-step inhibitors of atherosclerosis development” (PLOS ONE, 2024)
Several values for one entry are separate records, joined by “and”; a condition that tells them apart may be missing. Equal values may be shown once. Read-outs that look alike come from different tables or passages of the source.

What was measured:
[1] = system: J774.1 cells; experiment: Quantitation of oxLDL endocytosis (DiI-oxLDL spectrofluorometry); type: cell-based, murine; settings: for effect on oxLDL uptake by the cells (dose-response, Fig 4) / ED50: DiI-oxLDL 10 μg mL^-1, 24 h; for effect of Ca2+ chelation on DiI-oxLDL internalized: BAPTA-AM 5–20 μM, EGTA 4 mM (S8 Fig); for ED50: oxLDL internalization, NE non-effective
[2] = target: TRPV4; settings: read-out: Ki TRPV4; cited from earlier work
[3] = target: CB1; settings: cited from earlier work
[4] = target: TRPV1; settings: cited from earlier work
[5] = target: GPR55; settings: cited from earlier work
[6] = target: CB2; settings: cited from earlier work
[7] = system: J774.1 cells; experiment: Cellular toxicity, MTT reduction; settings: 24 h; for LD50: MTT viability curves; for effect on cell viability and metabolism (MTT): explored range 3–30 μM
Procedure: Cell viability was determined by the mitochondrial-dependent reduction of 3-[4,5-dimethylthiazole-2-yl]-2,5-diphenyltetrazolium bromide (MTT, Merck KGaA) to formazan. […] A control condition with vehicle alone (0.2% DMSO) was also added to each experiment. The medium was replaced with DMEM containing MTT (0.1 mg mL^-1) and the cells were incubated at 37° C for 4 h. After removing the media, formazan crystals were dissolved in DMSO, and the absorbance was registered using the Varioskan plate reader at 560 nm. […] Therapeutic indexes (TI) were calculated as the ratios between the […].

[8] = system: LDL; design: method as in PMID 33123676; settings: already described; cited from earlier work
[9] = system: human TRPV1; design: method as in PMID 15615864; settings: cited from earlier work
[10] = system: rat TRPV1; design: method as in PMID 15615864; settings: cited from earlier work
[11] = S2 Table, ref THC [1–5], CBD [3–6], AEA [2,3,5,8,9], AM251 [5,10–16], AM630 [14,15,17,18], ML184 [22–24], CID16020046 [25], read-out: Ki or IC50, GPR55
[12] = Fig 5 A-C, antagonist alone 5 µM, 24 h, replicates n=1-3
[13] = Fig 4, 0.28 µM, 24 h, replicates n=1-3
[14] = Fig 4, 1.39 µM, 24 h, replicates n=1-3
[15] = Fig 4, 2.79 µM, 24 h, replicates n=1-3
[16] = Fig 4, 8.37 µM, 24 h, replicates n=1-3
[17] = Fig 4, 13.95 µM, 24 h, replicates n=1-3
[18] = Fig 4, 0.32 µM, 24 h, replicates n=1-3
[19] = Fig 4, 1.59 µM, 24 h, replicates n=1-3
[20] = Fig 4, 3.18 µM, 24 h, replicates n=1-3
[21] = Fig 4, 12.72 µM, 24 h, replicates n=1-3

## CC(C)C[C@H](NC(=O)c1cc2ccccc2s1)C(=O)N1CCN(C(=O)[C@H](CO)NS(=O)(=O)c2ccc(Cl)cc2Cl)CC1 [GSK1016790A, N-[(1S)-1-[[4-[(2S)-2-[[(2,4-dichlorophenyl)sulfonyl]amine]-3-hydroxy-1-oxopropyl]-1-piperazinyl]carbonyl]-3-methylbutyl]benzo [b]thiophene-2-carboxamide]
[1]
  increase of DiI-oxLDL uptake: ~ 30%
[2]
  Ki: 5 nM

## CCCCC/C=C\C/C=C\C/C=C\C/C=C\CCCC(=O)NCCO [AEA, N-arachidonoylethanolamine]
[1]
  effect on oxLDL uptake by the cells (dose-response, Fig 4): unable to prevent the uptake of oxLDL
[3]
  Ki: 31 to 252 nM
[4]
  Ki: 270 nM

## COc1ccc(C(=O)c2c(C)n(CCN3CCOCC3)c3cc(I)ccc23)cc1 [AM630]
[5]; [11]
  Ki: 1500 nM
[1]
  effect of the antagonist on the inhibition of oxLDL uptake by the extracts: unable to counteract the inhibitory effect
[1]; [12]
  DiI-oxLDL: 5.170 µg/mL and 6.331 µg/mL and 3.777 µg/mL
  µg DiI-oxLDL/mg protein: 10.904 µg DiI-oxLDL/mg protein and 13.538 µg DiI-oxLDL/mg protein and 10.952 µg DiI-oxLDL/mg protein
[6]; read-out: Ki CB2
  Ki: 31 nM

## CC(=O)OCOC(=O)CN(CC(=O)OCOC(C)=O)c1ccccc1OCCOc1ccccc1N(CC(=O)OCOC(C)=O)CC(=O)OCOC(C)=O [BAPTA-2AM]
[1]; 6 h
  effect of Ca2+ chelation on DiI-oxLDL internalized: very considerable impact

## Cc1c(C(=O)NN2CCCCC2)nn(-c2ccc(Cl)cc2Cl)c1-c1ccc(I)cc1 [AM251, 1-(2,4-Dichlorophenyl)-5-(4-iodophenyl)-4-methyl-N-1-piperidinyl-1H-pyrazole-3-carboxamide]
[6]
  Ki: 124 nM

## C=C(C)[C@@H]1CCC(C)=C[C@H]1c1c(O)cc(CCCCC)c(C(=O)O)c1O [CBDA, cannabidiolic acid]
[7]
  LD50: > 40 µM
  effect on cell viability and metabolism (MTT): no effect
[1]
  effect on oxLDL uptake by the cells (dose-response, Fig 4): inhibited oxLDL endocytosis
  ED50: 18000 ± 3000 nM
[8]
  protection of LDL from oxidation: lack of protection
[6]
  Ki: 813 nM
[3]
  Ki: 626 nM

## Cc1cccc(N2CCN(C(=O)c3cc(S(=O)(=O)N(C)C)ccc3N3CCCC3)CC2)c1C [ML184, 3-[[4-(2,3-dimethylphenyl)-1-piperazinyl]carbonyl]-N,N-dimethyl-4-(1-pyrrolidinyl) benzenesulfonamide]
[5]; read-out: Ki GPR55
  Ki: 260 nM
[1]
  DiI-oxLDL: 0.641 µg/mL and 0.711 µg/mL and 0.735 µg/mL
  increase of DiI-oxLDL uptake: ~ 15%
  µg DiI-oxLDL/mg protein: 1.308 µg DiI-oxLDL/mg protein and 1.400 µg DiI-oxLDL/mg protein and 1.366 µg DiI-oxLDL/mg protein
[6]
  Ki: > 32000 nM
[3]
  Ki: > 32000 nM

## CCCCCc1cc2c(c(O)c1C(=O)O)C1C=C(C)CCC1C(C)(C)O2 (stereo not drawn) [THCA, Δ^9-tetrahydrocannabinolic acid]
[7]
  effect on cell viability and metabolism (MTT): no effect
[1]
  effect on oxLDL uptake by the cells (dose-response, Fig 4): inhibited oxLDL endocytosis
  ED50: 12000 ± 1000 nM
[1]; [13]
  DiI-oxLDL: 5.657 µg/mL and 5.8008 µg/mL and 5.782 µg/mL
  µg DiI-oxLDL/mg protein: 10.7513 µg DiI-oxLDL/mg protein and 10.8025 µg DiI-oxLDL/mg protein and 11.0708 µg DiI-oxLDL/mg protein
[1]; [14]
  DiI-oxLDL: 5.437 µg/mL and 5.452 µg/mL and 5.506 µg/mL
  µg DiI-oxLDL/mg protein: 9.919 µg DiI-oxLDL/mg protein and 9.956 µg DiI-oxLDL/mg protein and 10.007 µg DiI-oxLDL/mg protein
[1]; [15]
  DiI-oxLDL: 5.849 µg/mL and 5.071 µg/mL and 5.133 µg/mL
  µg DiI-oxLDL/mg protein: 9.9098 µg DiI-oxLDL/mg protein and 9.139 µg DiI-oxLDL/mg protein and 9.494 µg DiI-oxLDL/mg protein
[1]; [16]
  DiI-oxLDL: 3.515 µg/mL and 3.542 µg/mL and 3.49 µg/mL
  µg DiI-oxLDL/mg protein: 6.46 µg DiI-oxLDL/mg protein and 6.3952 µg DiI-oxLDL/mg protein and 6.189 µg DiI-oxLDL/mg protein
[1]; [17]
  DiI-oxLDL: 2.689 µg/mL and 2.817 µg/mL and 2.8328 µg/mL
  µg DiI-oxLDL/mg protein: 4.86 µg DiI-oxLDL/mg protein and 5.27 µg DiI-oxLDL/mg protein and 5.206 µg DiI-oxLDL/mg protein
[8]
  protection of LDL from oxidation: lack of protection
[6]
  Ki: 1650 nM
[3]
  Ki: 1290 nM

## COc1cc(CNC(=O)CCCCC=CC(C)C)ccc1O [Capsaicin, 8-methyl-N-vanillyl-6-nonenamide]
[1]; agonist 50 μM, 6 h, absence of extracts
  increase of DiI-oxLDL uptake: ~ 15%

## Cc1c(C(=O)Nc2cccc(C(F)(F)F)c2)cc(-c2ccccc2)n1CCCN1CCOCC1 [HC067047, 2-methyl-1-(3-morpholin-4-ylpropyl)-5-phenyl-N -[3-(trifluoromethyl)phenyl]pyrrole-3-carboxamide]
[1]
  effect of the antagonist on DiI-oxLDL uptake: did not affect DiI-oxLDL uptake
[2]
  Ki: 17 to 133 nM

## CCCCCc1cc(O)c2c(c1)OC(C)(C)[C@@H]1CCC(C)=C[C@@H]21 [THC, Δ^9-tetrahydrocannabinol]
[5]; [11]
  Ki: 8 to 8.9 nM
[7]
  LD50: 20 ± 1 µM
[1]
  DiI-oxLDL: 4.013 µg/mL and 4.084 µg/mL and 4.342 µg/mL
  µg DiI-oxLDL/mg protein: 10.0784 µg DiI-oxLDL/mg protein and 9.298 µg DiI-oxLDL/mg protein and 9.028 µg DiI-oxLDL/mg protein
  effect on oxLDL uptake by the cells (dose-response, Fig 4): inhibited oxLDL endocytosis
  ED50: 11000 ± 1000 nM
[1]; [18]
  DiI-oxLDL: 5.502 µg/mL and 5.314 µg/mL and 5.656 µg/mL
  µg DiI-oxLDL/mg protein: 13.3989 µg DiI-oxLDL/mg protein and 14.1131 µg DiI-oxLDL/mg protein and 13.7901 µg DiI-oxLDL/mg protein
[1]; [19]
  DiI-oxLDL: 5.307 µg/mL and 5.178 µg/mL and 5.296 µg/mL
  µg DiI-oxLDL/mg protein: 12.9859 µg DiI-oxLDL/mg protein and 12.4983 µg DiI-oxLDL/mg protein and 12.6611 µg DiI-oxLDL/mg protein
[1]; [20]
  DiI-oxLDL: 4.772 µg/mL and 4.841 µg/mL and 4.891 µg/mL
  µg DiI-oxLDL/mg protein: 12.1912 µg DiI-oxLDL/mg protein and 12.4565 µg DiI-oxLDL/mg protein and 12.6501 µg DiI-oxLDL/mg protein
[1]; [21]
  DiI-oxLDL: 2.336 µg/mL and 2.309 µg/mL and 2.423 µg/mL
  µg DiI-oxLDL/mg protein: 6.7266 µg DiI-oxLDL/mg protein and 6.397 µg DiI-oxLDL/mg protein and 6.486 µg DiI-oxLDL/mg protein
[8]
  protection of LDL from oxidation: protection

## Cc1ccc(-c2n[nH]c3c2C(c2cccc(O)c2)N(c2ccc(C(=O)O)cc2)C3=O)cc1 (stereo not drawn) [CID16020046, 4-[4,6-dihydro-4-(3-hydroxyphenyl)-3-(4-methylphenyl)-6-oxopyrrolo[3,4-c]pyrazol-5(1H)-yl]benzoic acid]
[1]
  effect of the antagonist on DiI-oxLDL uptake: did not affect DiI-oxLDL uptake

## C=C(C)[C@@H]1CCC(C)=C[C@H]1c1c(O)cc(CCCCC)cc1O [CBD, cannabidiol]
[5]; [11]
  Ki: 354 nM
[7]
  LD50: 23 ± 1 µM
[1]
  effect on oxLDL uptake by the cells (dose-response, Fig 4): inhibited oxLDL endocytosis
  ED50: 25000 ± 5000 nM
[8]
  protection of LDL from oxidation: lack of protection

## O=C(O)CN(CCOCCOCCN(CC(=O)O)CC(=O)O)CC(=O)O [EGTA]
[1]; 6 h
  effect of Ca2+ chelation on DiI-oxLDL internalized: negligible

## CC(C)(C)c1ccc(/C=C/C(=O)Nc2ccc3c(c2)OCCO3)cc1 [AMG9810, 2E-N-(2,3-dihydro-1,4-benzodioxin-6-yl)-3-[4-(1,1-dimethylethyl)phenyl]-2-propenamide]
[1]
  effect of the antagonist on DiI-oxLDL uptake: significant inhibition of DiI-oxLDL uptake
[9]
  IC50: 24.5 nM
[10]
  IC50: 85.6 nM
